Reference: patent US8258114B2, “Modulation of glucose-6-phosphatase translocase expression” (Isis Pharmaceuticals, Inc., priority 2004, dated 2012)
Where two headings read alike, the source gives them in different places.

Columns and labels:
[1] = mouse, in vivo, sc, 25 mg/kg
Method: Seven-week old male C57B1/6J-Lepr db/db mice (Jackson Laboratory, Bar Harbor, Me.) were fed a diet with a fat content of about 14% and were subcutaneously injected with one or more of the oligomeric compounds of the invention or a control compound at a dose of 25 mg/kg two times per week. Glucose-6-phosphatase translocase antisense oligonucleotides used were ISIS 148985 (SEQ ID NO: 118) and ISIS 149008 (SEQ ID NO: 141). ISIS 116847 (SEQ ID NO: 143), targeted to mouse PTEN, was used as a positive control. The scrambled control oligonucleotide ISIS 141923 ([…], incorporated herein as SEQ ID NO: 144) served as a negative control along with saline-injected animals. ISIS 141923 and ISIS 116847 are chimeric oligonucleotides (“gapmers”) 20 nucleotides in length, composed of a central “gap” region consisting of 10 2′-deoxynucleotides, which is flanked on both sides (5′ and 3′) by five-nucleotide “wings”. The wings are composed of 2′-O-(2-methoxyethyl) nucleotides, also known as 2′-MOE nucleotides. The internucleoside (backbone) linkages are phosphorothioate throughout the oligonucleotide. All cytidine residues are 5-methylcytidines.
Patients with the human glycogen storage disease type 1b have mutations in the glucose-6-phosphatase translocase gene. Because one manifestation of these mutations is a defect in hepatic glycogen […] leading to glycogen accumulation in the liver, the db/db mice were further evaluated at the end of the treatment period for liver glycogen stores. Tissue glycogen was measured using the Glucose Trinder Reagent (Sigma-Aldrich, St. Louis, Mo.). Results are presented as the average level from 5 animals per treatment. Glycogen levels of mice treated with saline alone were approximately 46 mg/g of tissue. Levels in mice treated with the positive control antisense compound ISIS 116847 had decreased levels of approximately 30 mg/g. Mice treated with the scrambled control compound ISIS 141923 had levels more similar to saline control of approximately 39 mg/g. Mice treated with ISIS 149008 or 148985, the antisense inhibitors of glucose-6-phosphatase translocase, had glycogen levels of approximately 38 mg/g and 37 mg/g, respectively.

[2] = Plasma triglycerides, cholesterol, free fatty acids, transaminases and lactate in db/db mice (Table 7); type: in vivo, mouse
Method: Seven-week old male C57B1/6J-Lepr db/db mice (Jackson Laboratory, Bar Harbor, Me.) were fed a diet with a fat content of about 14% (Formulab Diet 5008) and were subcutaneously injected with ISIS 116847 (SEQ ID NO: 143), ISIS 141923 (SEQ ID NO: 144), or ISIS 148985 (SEQ ID NO: 118), an antisense inhibitor of glucose-6-phosphatase translocase, […] weeks. […] Saline-injected animals served as controls. 48 hours after the eighth and final dose was administered, mice were sacrificed and target levels were evaluated in liver. RNA isolation and target mRNA expression level quantitation were performed as described by other examples herein.
To further assess the physiological effects resulting from inhibition of target mRNA, the db/db mice were evaluated at the end of the treatment period for plasma triglycerides, plasma cholesterol, free fatty acids (FFA), lactate and plasma transaminase levels. The transaminases ALT and AST are indicators of liver function. Plasma triglycerides, cholesterol, free fatty acids, and transaminases were measured by routine clinical analyzer instruments (e.g. Olympus Clinical Analyzer, Melville, N.Y.). Results are presented in table 7 as the averages from seven animals per treatment group.

db/db mice = assay: Oral glucose tolerance test in db/db mice (Table 10); type: in vivo, mouse
Method: The mice described in Example 11 were evaluated for performance on glucose tolerance tests after the 6th dose of saline or antisense oligonucleotides. Through measurement of glucose levels following the administration of a bolus of glucose, tolerance tests assess the physiological response to a glucose challenge.
Oral glucose tolerance tests (OGTT) were performed during week 3 of treatment with saline, ISIS 116847 (targeted to PTEN, SEQ ID NO: 143), ISIS 149008 (SEQ ID NO: 141), ISIS 148985 (SEQ ID NO: 118), or ISIS 141923 (SEQ ID NO: 144). To provide a baseline glucose level, fasted blood glucose levels were measured before the challenge. Glucose was administered by oral gavage via an 18 g gavage needle at a dose of 1 g/kg. Plasma glucose levels were measured for 30, 60, 90 and 120 minutes post-challenge using an Ascencia Glucometer Elite XL (Bayer, Tarrytown, N.Y.).
The results are presented in Table 10 as the average plasma glucose level (in mg/dL) per time point from each treatment group (n=7).

[3] = mouse, in vivo, sc, 25 mg/kg; remark: listed apart in the source
Method: Seven-week old male C57B1/6J-Lep ob/ob mice (Jackson Laboratory, Bar Harbor, Me.) were fed a diet with a fat content of about 22% and were subcutaneously injected with oligonucleotides at a dose of 25 mg/kg two times per week. A total of eight doses were administered. Glucose-6-phosphatase translocase antisense oligonucleotides used were ISIS 148985 (SEQ ID NO: 118) and ISIS 149008 (SEQ ID NO: 141). ISIS 116847 ([…]; incorporated herein as SEQ ID NO: 143), targeted to mouse PTEN, was used as a positive control. Saline-injected animals served as negative controls. Animals were sacrificed 48 hours after the last dose of oligonucleotide was administered, and liver triglycerides, liver glycogen, and target reduction in liver were measured.
Hepatic steatosis, or buildup of lipids in the liver, was assessed by measuring the liver triglyceride content. Tissue triglycerides were measured with a Triglyceride GPO assay from Roche Diagnostics (Indianapolis, Ind.). Data are presented as averages from 5 animals per treatment group. Triglycerides were approximately 178 mg/g for saline treated mice, 162 mg/g for ISIS 149008-treated mice, 168 mg/g for ISIS 148985-treated mice, and 187 mg/g for ISIS 116847 (PTEN)-treated mice. Thus liver triglycerides were not increased in antisense-treated animals.
Tissue glycogen was measured using the Glucose Trinder Reagent (Sigma-Aldrich, St. Louis, Mo.). Glycogen levels of mice treated with saline alone were approximately 31 mg/g of tissue. Levels in mice treated with the positive control antisense compound ISIS 116847, targeted to PTEN, had levels of approximately 25 mg/g. Mice treated with ISIS 149008 or 148985, the antisense inhibitors of glucose-6-phosphatase translocase, had glycogen levels of approximately 31 mg/g and 30 mg/g, respectively.

[4] = 25 mg/kg twice weekly 4 weeks (25 mg/mL [sic]), saline 0.8
[5] = 25 mg/kg twice weekly 4 weeks (25 mg/mL [sic]), saline 56
[6] = 25 mg/kg twice weekly 4 weeks (25 mg/mL [sic]), saline 59
[7] = 25 mg/kg twice weekly 4 weeks (25 mg/mL [sic]), saline 108
[8] = 25 mg/kg twice weekly 4 weeks (25 mg/mL [sic]), saline 152
[9] = 25 mg/kg twice weekly 4 weeks (25 mg/mL [sic]), saline 213
[10] = 25 mg/kg twice weekly, week 3, 0 min post-glucose challenge (fasted)
[11] = 25 mg/kg twice weekly, week 3, 30 min
[12] = 25 mg/kg twice weekly, week 3, 60 min
[13] = 25 mg/kg twice weekly, week 3, 90 min
[14] = 25 mg/kg twice weekly, week 3, 120 min
[15] = dose 12.5 mg/mL [sic], twice weekly 4 weeks
[16] = dose printed 6 mg/mL, twice weekly 4 weeks

CCTTCCCTGAAGGTTCCTCC (chemistry not given here) [ISIS 141923, scrambled control oligonucleotide, negative control, reference compound]
Liver glycogen levels [1]: approximately 39 mg/g | Free Fatty Acids [2, 4]: 0.9 mEq/L | ALT [2, 5]: 72 IU/L | AST [2, 6]: 56 IU/L | Lactate [2, 7]: 128 mg/dL | Cholesterol [2, 8]: 167 mg/dL | Plasma Triglycerides [2, 9]: 166 mg/dL | plasma glucose, OGTT (db/db mice; [10]): 284 mg/dL | plasma glucose, OGTT (db/db mice; [11]): 522 mg/dL | plasma glucose, OGTT (db/db mice; [12]): 445 mg/dL | plasma glucose, OGTT (db/db mice; [13]): 338 mg/dL | plasma glucose, OGTT (db/db mice; [14]): 339 mg/dL

CTGCTAGCCTCTGGATTTGA (chemistry not given here) [ISIS 116847, positive control oligonucleotide targeted to mouse PTEN, reference compound]
Liver Triglycerides [3]: ~187 mg/g | Liver glycogen levels [3]: approximately 25 mg/g | Liver glycogen levels [1]: approximately 30 mg/g | Free Fatty Acids [2, 4]: 0.8 mEq/L | ALT [2, 5]: 70 IU/L | AST [2, 6]: 62 IU/L | Lactate [2, 7]: 131 mg/dL | Cholesterol [2, 8]: 161 mg/dL | Plasma Triglycerides [2, 9]: 166 mg/dL | plasma glucose, OGTT (db/db mice; [10]): 181 mg/dL | plasma glucose, OGTT (db/db mice; [11]): 441 mg/dL | plasma glucose, OGTT (db/db mice; [12]): 367 mg/dL | plasma glucose, OGTT (db/db mice; [13]): 305 mg/dL | plasma glucose, OGTT (db/db mice; [14]): 286 mg/dL

GCTCCATAGCGAGGACTCGA (chemistry not given here) [ISIS 148985]
Liver Triglycerides [3]: ~168 mg/g | Liver glycogen levels [3]: ~30 mg/g | Liver glycogen levels [1]: ~37 mg/g | Free Fatty Acids [2, 4]: 1.1 mEq/L | ALT [2, 5]: 73 IU/L | AST [2, 6]: 48 IU/L | Lactate [2, 7]: 105 mg/dL | Cholesterol [2, 8]: 164 mg/dL | Plasma Triglycerides [2, 9]: 202 mg/dL | plasma glucose, OGTT (db/db mice; [10]): 230 mg/dL | plasma glucose, OGTT (db/db mice; [11]): 494 mg/dL | plasma glucose, OGTT (db/db mice; [12]): 445 mg/dL | plasma glucose, OGTT (db/db mice; [13]): 335 mg/dL | plasma glucose, OGTT (db/db mice; [14]): 355 mg/dL

TATACAAGTCGGTTTGCCCT (chemistry not given here) [ISIS 149008]
Liver Triglycerides [3]: ~162 mg/g | Liver glycogen levels [3]: approximately 31 mg/g | Liver glycogen levels [1]: approximately 38 mg/g | Free Fatty Acids [2, 4]: 0.9 mEq/L | ALT [2, 5]: 68 IU/L | AST [2, 6]: 55 IU/L | Lactate [2, 7]: 129 mg/dL | Cholesterol [2, 8]: 167 mg/dL | Plasma Triglycerides [2, 9]: 197 mg/dL | ALT [2, 15]: 64 IU/L | AST [2, 15]: 56 IU/L | Cholesterol [2, 15]: 172 mg/dL | Free Fatty Acids [2, 15]: 1.0 mEq/L | Lactate [2, 15]: 127 mg/dL | Plasma Triglycerides [2, 15]: 247 mg/dL | ALT [2, 16]: 59 IU/L | AST [2, 16]: 49 IU/L | Cholesterol [2, 16]: 158 mg/dL | Free Fatty Acids [2, 16]: 0.9 mEq/L | Lactate [2, 16]: 125 mg/dL | Plasma Triglycerides [2, 16]: 205 mg/dL | plasma glucose, OGTT (db/db mice; 6 mg/kg twice weekly, week 3, 0 min (fasted)): 204 mg/dL | plasma glucose, OGTT (db/db mice; 6 mg/kg twice weekly, week 3, 30 min): 518 mg/dL | plasma glucose, OGTT (db/db mice; 6 mg/kg twice weekly, week 3, 60 min): 468 mg/dL | plasma glucose, OGTT (db/db mice; 6 mg/kg twice weekly, week 3, 90 min): 377 mg/dL | plasma glucose, OGTT (db/db mice; 6 mg/kg twice weekly, week 3, 120 min): 330 mg/dL | plasma glucose, OGTT (db/db mice; 12.5 mg/kg twice weekly, week 3, 0 min (fasted)): 152 mg/dL | plasma glucose, OGTT (db/db mice; 12.5 mg/kg twice weekly, week 3, 30 min): 529 mg/dL | plasma glucose, OGTT (db/db mice; 12.5 mg/kg twice weekly, week 3, 60 min): 427 mg/dL | plasma glucose, OGTT (db/db mice; 12.5 mg/kg twice weekly, week 3, 90 min): 348 mg/dL | plasma glucose, OGTT (db/db mice; 12.5 mg/kg twice weekly, week 3, 120 min): 329 mg/dL | area under the curve (AUC) of OGTT glucose values compared to saline (in words) (db/db mice; 25 mg/kg): significantly reduced the AUC | plasma glucose, OGTT (db/db mice; [10]): 227 mg/dL | plasma glucose, OGTT (db/db mice; [11]): 462 mg/dL | plasma glucose, OGTT (db/db mice; [12]): 326 mg/dL | plasma glucose, OGTT (db/db mice; [13]): 272 mg/dL | plasma glucose, OGTT (db/db mice; [14]): 231 mg/dL | glucose tolerance (in words) (db/db mice; 6.25 to 25 mg/kg): dose-dependent improvement in glucose tolerance
